According to US7326721B2 (Hypnion, Inc., priority 2003, dated 2008):
pIC50, pKi: −log10 of the molar value. Read-outs that look alike come from different tables or passages of the source.

Legend:
[1] = system: Glutamic Acid Decarboxylase; assay: Table 12 panel: Glutamic Acid Decarboxylase; type: biochemical; details: 1.0E−6, average N=2
From the text: (§1) The percentage inhibition (average; N=2) for these receptors is shown below in Table 12.
(§2) Values in Table 12 are expressed as percentage inhibition of specific binding, and these values represent the average of replicate tubes at each of the concentrations tested.

[2] = system: Calcium Channel, Type L (Dihydropyridine Site); assay: Table 12 panel: Calcium Channel, Type L; type: binding; details: 1.0E−6, average N=2
From the text: as §1, §2

M2 muscarinic receptor = target: T1, M2 muscarinic receptor (Homo sapiens, UniProt P08172); assay: Muscarinic M2 binding assay; parameters: purchased PerkinElmer, Inc., Wellesley, Mass; host or cells: CHO cells
T1 sequence (P08172 1-466): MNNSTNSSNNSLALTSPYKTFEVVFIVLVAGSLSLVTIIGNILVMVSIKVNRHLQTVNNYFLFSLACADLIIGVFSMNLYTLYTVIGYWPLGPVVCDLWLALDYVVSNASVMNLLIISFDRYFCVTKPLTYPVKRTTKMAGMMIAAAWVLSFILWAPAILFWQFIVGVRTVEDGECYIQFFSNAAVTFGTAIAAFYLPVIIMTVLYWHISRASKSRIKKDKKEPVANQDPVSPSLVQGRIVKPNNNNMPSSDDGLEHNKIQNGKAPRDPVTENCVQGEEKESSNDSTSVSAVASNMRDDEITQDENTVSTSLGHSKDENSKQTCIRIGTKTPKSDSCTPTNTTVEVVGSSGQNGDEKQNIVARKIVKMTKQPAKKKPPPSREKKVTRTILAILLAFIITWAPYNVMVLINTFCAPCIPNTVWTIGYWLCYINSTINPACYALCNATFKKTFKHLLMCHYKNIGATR

Melatonin, Non-selective = assay: Table 12 panel: Melatonin; type: binding; details: 1.0E−6, average N=2
From the text: as §1, §2

adult male Wistar rats = assay: SCORE-2000 sleep-wakefulness, locomotor activity and body temperature monitoring; type: in vivo, rat
Neurokinin, NK3 (NKB) = Neurokinin, NK3 (NKB) (Homo sapiens, UniProt P29371); assay: Table 12 panel: NK3; details: 1.0E−6, average N=2, read-out: percentage inhibition of specific binding
From the text: as §1, §2

M3 muscarinic receptor = M3 muscarinic receptor (Homo sapiens, UniProt P20309); assay: Muscarinic M3 binding assay; parameters: purchased PerkinElmer, Inc., Wellesley, Mass; host or cells: CHO cells
Histamine, H3 = Histamine, H3 (Homo sapiens, UniProt Q9Y5N1); assay: biochemical; details: read-out: percentage inhibition of specific binding
H1 histamine receptor = target: T2, H1 histamine receptor (Bos taurus, UniProt P30546); assay: Histamine H1 competitive binding assay ([3H]pyrilamine); parameters: species or system bovine
T2 construct: the receptors were obtained from bovine cerebellar membrane tissue; from tissue; host or cells: bovine cerebellar membranes

M1 muscarinic receptor = target: T3, M1 muscarinic receptor (Homo sapiens, UniProt P11229); assay: Muscarinic M1 binding assay ([3H]-scopolamine, N-methyl chloride); parameters: purchased PerkinElmer, Inc., Wellesley, Mass; host or cells: CHO cells
T3 sequence (P11229 1-460): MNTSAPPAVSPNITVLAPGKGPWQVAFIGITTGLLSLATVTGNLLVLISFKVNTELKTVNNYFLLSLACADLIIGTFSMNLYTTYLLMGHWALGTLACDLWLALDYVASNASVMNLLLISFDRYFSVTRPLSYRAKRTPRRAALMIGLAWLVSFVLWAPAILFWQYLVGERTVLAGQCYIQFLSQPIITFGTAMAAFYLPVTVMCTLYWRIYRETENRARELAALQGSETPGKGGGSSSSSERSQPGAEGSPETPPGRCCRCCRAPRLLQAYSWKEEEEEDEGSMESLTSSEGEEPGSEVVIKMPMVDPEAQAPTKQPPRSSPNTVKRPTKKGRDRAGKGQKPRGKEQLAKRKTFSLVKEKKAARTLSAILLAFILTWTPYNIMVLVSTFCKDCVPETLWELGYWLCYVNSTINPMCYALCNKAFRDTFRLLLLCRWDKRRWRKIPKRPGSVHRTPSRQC

[3] = system: Potassium Channel, ATP-Sensitive; assay: Table 12 panel: Potassium Channel, ATP-Sensitive; type: binding; details: 1.0E−6, average N=2
From the text: as §1, §2

[4] = target: Thyrotropin Releasing Hormone, TRH (Homo sapiens, UniProt P34981); assay: Table 12 panel: TRH; details: 1.0E−6, average N=2, read-out: percentage inhibition of specific binding
From the text: as §1, §2

[5] = system: Vasoactive Intestinal Peptide, Non-selective; assay: Table 12 panel: VIP; type: binding; details: 1.0E−6, average N=2
From the text: as §1, §2

[6] = 14-day dog study with recovery phase; type: in vivo; details: Beagle, dog, in vivo
Method: (§3) The toxicity and the toxicokinetics of HY2901 when administered daily via oral gavage (Phase 1) or capsules (Phase 2) to dogs for at least 14 days was determined. The reversibility, persistence, or delayed occurrence of observable effects following a 7-day (Phase 1) or 14-day (Phase 2) recovery period was also assessed. Doses of 3, 10, 30, and 70 mg/kg/day were studied.

Beagles = assay: 14-day dog study with recovery phase; type: in vivo
Method: as §3

rat hepatocytes = assay: In vitro rate of metabolism in rat hepatocyte cultures; type: in vitro ADME
Method: Cytochrome P450 inhibition was studied with HY2901 in vitro. […] In addition, the in vitro rate of metabolism in rat, dog, monkey, and human hepatocyte cultures was determined for HY2901.

[7] = Protein binding in human plasma; type: in vitro ADME
Method: HY2901 was administered to rats, dogs, and cynomolgus monkeys at a dose of 3 mg/kg orally and intravenously. Plasma samples were collected from all species for pharmacokinetic analysis. […] HY2901 is 75% protein bound in rat plasma and 60% protein bound in human plasma.

hERG = hERG (Homo sapiens, UniProt Q12809); details: human, 10 µM, pH 7.4
[8] = 1 h, read-out: percentage inhibition of specific binding

T2 sequence (P30546 whole entry): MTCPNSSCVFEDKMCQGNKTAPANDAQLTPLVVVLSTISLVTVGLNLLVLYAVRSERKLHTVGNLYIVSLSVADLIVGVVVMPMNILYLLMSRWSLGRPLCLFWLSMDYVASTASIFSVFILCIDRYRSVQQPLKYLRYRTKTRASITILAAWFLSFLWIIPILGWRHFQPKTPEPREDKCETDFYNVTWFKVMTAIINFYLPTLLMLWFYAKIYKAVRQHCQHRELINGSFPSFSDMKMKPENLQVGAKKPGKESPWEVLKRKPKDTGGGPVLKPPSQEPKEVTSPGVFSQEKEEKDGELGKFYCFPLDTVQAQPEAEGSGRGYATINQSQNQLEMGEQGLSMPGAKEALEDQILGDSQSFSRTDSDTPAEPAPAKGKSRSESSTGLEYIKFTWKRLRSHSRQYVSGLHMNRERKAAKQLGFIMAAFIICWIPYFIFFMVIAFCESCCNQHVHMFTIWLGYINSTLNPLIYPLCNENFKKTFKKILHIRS
Sequence of M3 muscarinic receptor (P20309 whole entry): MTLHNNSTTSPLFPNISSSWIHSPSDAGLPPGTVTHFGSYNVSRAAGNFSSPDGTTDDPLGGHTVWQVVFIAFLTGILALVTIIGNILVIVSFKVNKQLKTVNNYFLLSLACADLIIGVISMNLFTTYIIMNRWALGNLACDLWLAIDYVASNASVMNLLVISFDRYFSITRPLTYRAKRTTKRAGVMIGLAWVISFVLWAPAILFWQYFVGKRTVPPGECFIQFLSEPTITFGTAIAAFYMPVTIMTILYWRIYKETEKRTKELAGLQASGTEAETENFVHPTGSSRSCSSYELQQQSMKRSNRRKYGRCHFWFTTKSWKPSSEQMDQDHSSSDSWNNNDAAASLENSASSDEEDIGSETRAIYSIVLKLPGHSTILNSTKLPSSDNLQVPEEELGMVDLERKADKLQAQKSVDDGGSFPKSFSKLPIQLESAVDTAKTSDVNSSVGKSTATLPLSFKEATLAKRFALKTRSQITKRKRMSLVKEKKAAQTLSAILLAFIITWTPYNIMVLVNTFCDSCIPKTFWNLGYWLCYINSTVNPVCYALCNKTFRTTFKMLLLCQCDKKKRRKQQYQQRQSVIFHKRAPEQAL
Sequence of Neurokinin, NK3 (NKB) (P29371 whole entry): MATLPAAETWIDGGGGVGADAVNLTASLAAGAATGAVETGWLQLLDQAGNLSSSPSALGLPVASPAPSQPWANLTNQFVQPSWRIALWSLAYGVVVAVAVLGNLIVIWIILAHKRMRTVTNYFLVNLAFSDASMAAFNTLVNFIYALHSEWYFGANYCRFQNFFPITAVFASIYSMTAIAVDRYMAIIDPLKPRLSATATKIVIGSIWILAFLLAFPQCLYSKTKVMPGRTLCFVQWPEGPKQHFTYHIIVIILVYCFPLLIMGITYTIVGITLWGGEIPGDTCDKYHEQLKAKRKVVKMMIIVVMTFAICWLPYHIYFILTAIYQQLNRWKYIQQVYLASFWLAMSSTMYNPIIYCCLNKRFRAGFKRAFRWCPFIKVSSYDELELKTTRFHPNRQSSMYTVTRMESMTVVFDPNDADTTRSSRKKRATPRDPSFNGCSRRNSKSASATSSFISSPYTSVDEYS
Sequence of Histamine, H3 (Q9Y5N1 whole entry): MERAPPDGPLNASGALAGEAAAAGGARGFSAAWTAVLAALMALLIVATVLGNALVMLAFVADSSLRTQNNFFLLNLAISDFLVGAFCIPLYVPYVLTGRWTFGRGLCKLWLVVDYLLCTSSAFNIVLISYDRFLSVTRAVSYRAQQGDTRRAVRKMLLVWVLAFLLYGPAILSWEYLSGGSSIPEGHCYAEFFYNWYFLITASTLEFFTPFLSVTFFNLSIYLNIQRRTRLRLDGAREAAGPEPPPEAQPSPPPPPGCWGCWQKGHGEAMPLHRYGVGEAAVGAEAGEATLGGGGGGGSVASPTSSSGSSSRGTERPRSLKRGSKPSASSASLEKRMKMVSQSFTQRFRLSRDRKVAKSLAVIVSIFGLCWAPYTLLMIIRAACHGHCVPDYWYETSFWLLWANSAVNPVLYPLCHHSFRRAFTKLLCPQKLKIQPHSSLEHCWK
Sequence of hERG (Q12809 whole entry): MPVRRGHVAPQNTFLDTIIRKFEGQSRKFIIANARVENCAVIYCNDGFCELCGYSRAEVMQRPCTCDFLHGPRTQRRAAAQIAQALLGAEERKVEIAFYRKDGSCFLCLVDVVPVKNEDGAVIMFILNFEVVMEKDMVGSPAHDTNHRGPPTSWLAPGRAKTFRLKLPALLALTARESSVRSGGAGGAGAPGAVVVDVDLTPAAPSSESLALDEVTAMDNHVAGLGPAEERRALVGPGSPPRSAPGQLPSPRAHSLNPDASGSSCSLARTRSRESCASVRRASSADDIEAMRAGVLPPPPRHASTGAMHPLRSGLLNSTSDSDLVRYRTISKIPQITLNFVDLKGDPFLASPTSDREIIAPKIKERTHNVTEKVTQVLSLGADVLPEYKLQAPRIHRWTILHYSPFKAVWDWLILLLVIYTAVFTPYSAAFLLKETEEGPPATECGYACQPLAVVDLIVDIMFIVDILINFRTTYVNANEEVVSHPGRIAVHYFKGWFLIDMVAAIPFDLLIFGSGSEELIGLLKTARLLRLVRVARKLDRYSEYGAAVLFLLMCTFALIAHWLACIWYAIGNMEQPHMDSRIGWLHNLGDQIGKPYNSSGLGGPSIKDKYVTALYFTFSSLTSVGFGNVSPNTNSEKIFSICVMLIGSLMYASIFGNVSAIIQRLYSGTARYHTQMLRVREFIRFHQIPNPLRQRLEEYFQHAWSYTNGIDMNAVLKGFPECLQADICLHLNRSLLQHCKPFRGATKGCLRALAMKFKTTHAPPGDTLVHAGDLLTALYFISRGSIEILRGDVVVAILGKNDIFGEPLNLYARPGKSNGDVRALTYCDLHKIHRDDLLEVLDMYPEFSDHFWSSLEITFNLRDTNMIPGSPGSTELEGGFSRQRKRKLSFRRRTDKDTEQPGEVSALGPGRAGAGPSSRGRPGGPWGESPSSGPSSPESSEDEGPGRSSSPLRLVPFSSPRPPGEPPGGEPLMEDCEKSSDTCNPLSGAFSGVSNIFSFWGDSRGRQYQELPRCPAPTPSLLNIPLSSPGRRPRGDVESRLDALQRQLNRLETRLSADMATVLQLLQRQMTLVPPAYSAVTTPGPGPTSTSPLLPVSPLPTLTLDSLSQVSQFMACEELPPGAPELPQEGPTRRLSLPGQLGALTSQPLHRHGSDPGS
Sequence of Thyrotropin Releasing Hormone, TRH (P34981 whole entry): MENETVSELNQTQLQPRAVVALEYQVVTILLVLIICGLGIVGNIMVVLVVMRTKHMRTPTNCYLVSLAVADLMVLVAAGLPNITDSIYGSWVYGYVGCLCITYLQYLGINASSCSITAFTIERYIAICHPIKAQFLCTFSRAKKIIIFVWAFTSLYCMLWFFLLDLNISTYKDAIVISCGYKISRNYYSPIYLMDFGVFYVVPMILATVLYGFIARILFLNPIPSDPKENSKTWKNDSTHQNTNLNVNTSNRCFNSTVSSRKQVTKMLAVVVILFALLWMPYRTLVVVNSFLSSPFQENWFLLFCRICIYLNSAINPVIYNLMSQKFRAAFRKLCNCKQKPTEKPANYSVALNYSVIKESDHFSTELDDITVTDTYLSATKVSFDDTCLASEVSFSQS

SMILES: CC(CC(=O)O)N1CCC(=C2c3ccc(F)cc3COc3ccccc32)CC1 (stereo not drawn) [Compound 37]
- percentage inhibition [1]: −4.76%
- percentage inhibition of specific binding [2]: 5.82%
- pIC50 (M2 muscarinic receptor): < 5.00
- pKi (M2 muscarinic receptor): < 5.00
- inhibition at 1 µM (M2 muscarinic receptor; [8]): 14.6%
- percentage inhibition of specific binding (Melatonin, Non-selective): 11.29%
- REM inhibition (adult male Wistar rats; 10 mg/kg): did not produce any REM inhibition
- body temperature (adult male Wistar rats; 10 mg/kg): no disproportional reduction
- locomotor activity (LMA) (adult male Wistar rats; 10 mg/kg): no disproportional reduction
- rebound insomnia (adult male Wistar rats; 10 mg/kg): did not produce any REM inhibition or rebound insomnia
- Cumulative NREM sleep time increase, adjusted for baseline and relative to vehicle (adult male Wistar rats; 10 mg/kg PO at CT-18): 53 min
- absolute average sleep bout (adult male Wistar rats; 10 mg/kg PO at CT-18): 9 min
- absolute longest sleep bout post-treatment (adult male Wistar rats; 10 mg/kg PO at CT-18): 18.3 min
- average sleep bout length increase, adjusted for baseline and relative to vehicle (adult male Wistar rats; 10 mg/kg PO at CT-18): 5.3 min
- longest sleep bout (LUSB), adjusted for baseline and relative to vehicle (adult male Wistar rats; 10 mg/kg PO at CT-18): 10.8 min
- peak NREM sleep time (adult male Wistar rats; 10 mg/kg PO at CT-18): 64 % per hour
- body temperature (adult male Wistar rats; 30 mg/kg): drop in body temperature occurred only at this high dose
- locomotor activity (LMA) (adult male Wistar rats; 30 mg/kg): no disproportional reduction in LMA
- rebound insomnia (adult male Wistar rats; 30 mg/kg): No rebound insomnia was observed
- Cumulative NREM sleep time increase, adjusted for baseline and relative to vehicle (adult male Wistar rats; 30 mg/kg PO at CT-18): 62 min
- absolute average sleep bout (adult male Wistar rats; 30 mg/kg PO at CT-18): 9 min
- absolute longest sleep bout post-treatment (adult male Wistar rats; 30 mg/kg PO at CT-18): 25 min
- average sleep bout length increase, adjusted for baseline and relative to vehicle (adult male Wistar rats; 30 mg/kg PO at CT-18): 5.6 min
- longest sleep bout (LUSB), adjusted for baseline and relative to vehicle (adult male Wistar rats; 30 mg/kg PO at CT-18): 17.1 min
- peak NREM sleep time (adult male Wistar rats; 30 mg/kg PO at CT-18): 72 % per hour
- REM inhibition (adult male Wistar rats; 30 mg/kg at CT-18): did not produce any appreciable REM inhibition
- inhibition at 1 µM (Neurokinin, NK3 (NKB)): -0.23%
- pIC50 (M3 muscarinic receptor; M3 receptor binding (Table 19)): < 5.00
- pKi (M3 muscarinic receptor; M3 receptor binding (Table 19), read-out: Ki): < 5.00
- inhibition at 1 µM (Histamine, H3): 5.11%
- pIC50 (H1 histamine receptor): 7.17
- pKi (H1 histamine receptor): 7.59
- inhibition at 1 µM (H1 histamine receptor; [8]): 93.1%
- Slope (H1 histamine receptor; H1 binding curve (Table 13)): −0.99
- pIC50 (M1 muscarinic receptor): < 5.00
- pKi (M1 muscarinic receptor): < 5.00
- inhibition at 1 µM (M1 muscarinic receptor; [8]): 5.11%
- percentage inhibition of specific binding [3]: 26.16%
- inhibition at 1 µM [4]: -2.98%
- percentage inhibition of specific binding [5]: 2.51%

SMILES: CC(C)(CN1CCC(=C2c3ccc(F)cc3COc3ccccc32)CC1)C(=O)O [Compound 49a]
- pKi (M2 muscarinic receptor; read-out: Ki M2): < 5.00
- NOAEL at 14 days [6]: 70 mg/kg/day
- clinical observations (Beagles; 3 mg/kg/day Phase 1 dogs): no treatment-related clinical observations
- respiration rates, rectal body temperatures, body weights, food consumption, electrocardiograms, ophthalmic examinations (Beagles; Phase 1 and 2): no changes
- clinical observations (Beagles; Phase 2 (capsules)): treatment-related head tremors, ataxia, hypoactivity, and excessive salivation
- clinical laboratory data (Beagles; dog, in vivo): no evidence in the clinical laboratory data of an effect
- survival (Beagles; dog, in vivo): survived until scheduled sacrifice
- LUSB (adult male Wistar rats; dose 0.3 mg/kg oral at CT-18): 2.8 min
- NREM (adult male Wistar rats; dose 0.3 mg/kg oral at CT-18): -6.6 min
- LUSB (adult male Wistar rats; dose 1 mg/kg oral at CT-18): 4.3 min
- NREM (adult male Wistar rats; dose 1 mg/kg oral at CT-18): 18.8 min
- LUSB (adult male Wistar rats; dose 3 mg/kg oral at CT-18): 11.6 min
- NREM (adult male Wistar rats; dose 3 mg/kg oral at CT-18): 37.2 min
- LUSB (adult male Wistar rats; dose 10 mg/kg oral at CT-18): 14.1 min
- NREM (adult male Wistar rats; dose 10 mg/kg oral at CT-18): 45.3 min
- LUSB (adult male Wistar rats; dose 30 mg/kg oral at CT-18): 12.9 min
- NREM (adult male Wistar rats; dose 30 mg/kg oral at CT-18): 49.1 min
- pKi (M3 muscarinic receptor; read-out: Ki M3): < 5.00
- in vitro metabolism (rat hepatocytes): extensively metabolized
- pKi (H1 histamine receptor; read-out: Ki H1): 7.16
- protein bound [7]: 60%
- pKi (M1 muscarinic receptor; read-out: Ki M1): < 5.00
- hERG at micromolar (% blocking of the hERG channel) (hERG): 10.9 @ 10%
